Measured values reported in US4559325A, “Purified antineoplaston fractions and methods of treating neoplastic disease” (priority 1984, dated 1985).
Structures can show the parent of a compound that is named as a salt.

Legend:
Rd/3 sarcoma = settings: rats, cited from earlier work
[1] = Acute toxicity studies in mice; settings: mouse, in vivo, ip
Protocol: After a week, a select number of the mice were sacrificed.
Acute toxicity studies involving antineoplaston fractions A2-A5, antineoplaston A10 and degradation products were carried out in the same manner described above.

SMILES | enhancement of tumor growth (Rd/3 sarcoma; Rd/3 sarcoma) | effect on tumor growth, Rd/3 sarcoma (Rd/3 sarcoma; inhibition) | LD50 [1] [mg/kg]
O=C(O)Cc1ccccc1 [sodium salt of phenylacetic acid] | some enhancement of tumor growth | failed to inhibit tumor growth | –
O=C1CCC(NC(=O)Cc2ccccc2)C(=O)N1 (stereo not drawn) [Antineoplaston A10, 3-[N-phenylacetylaminopiperidine]-2,6-dion] | – | – | 10300
